Measured values published in US20240285681A1, “CELLS FOR TREATING INFECTIONS” (LIfT BioSciences Ltd, priority 2019, published 2024).
Several values for one entry are separate records, joined by “and”; a condition that tells them apart may be missing. Identical values can stand only once.

Tests used:
[1] = tested on: P. aeruginosa RP73; assay: Neutrophil bacterial co-culture (BKA) assay, P. aeruginosa RP73; format: cell-based; settings: 2 hours
Procedure: (§1) 24 hours prior to use, overnight cultures (ONCs) of all strains (P. aeruginosa: multidrug resistant Cystic Fibrosis isolate RP73 (Di Lorenzo et al (2015), Mol. Immunol., 63, 166-175); MRSA: Community acquired strain USA300 (Diep et al (2006), Lancet, 367, 731-739)) were prepared by inoculating 20 ml tryptic soy broth (3% w/v TSB in deionised water) with 2 stock cryobeads for 24 hours at 37° C., under shaking at 120 rpm (Sciquip mini incu shake). After incubation, ONCs were centrifuged at 2,800 g for 20 minutes at 4° C. The pellet was then resuspended in 10 ml Roswell Park Memorial Institute (RPMI) 1640 medium (commercially available from Sigma-Aldrich, UK). Optical density readings were then taken for all strains and diluted in RPMI 1640 to an OD of 0.015, equivalent of 1×10^7 cfu/ml.
Bacterial cultures were prepared as described above. 100 μl of 1×10^7 cfu/ml bacterial strains were added to either 100 μl RPMI 1640, 100 μl 1×10^7/ml neutrophils or increasing concentrations of Tobramycin (for P. aeruginosa) or Vancomycin (for MRSA) (1, 10, 100 μg/ml). These cultures were then incubated at 37° C., under shaking at 120 rpm for up to 24 hours. At 2, 6 and 24 hours, 20 μl aliquots of each sample were diluted in sterile RPMI at 1/10, 1/100, 1/1000, 1/10000, 1/100000 and 1/1000000 and plated on Tryptic Soy Agar (TSA) and incubated at 37° C. for 24 hours. Post incubation, bacterial colonies were manually counted and the total cfu content quantified.
(§2) To validate an in vitro model of neutrophil bacterial killing activity (BKA) assay, increasing concentrations of neutrophils (1×10^5, 5×10^5 and 1×10^6 neutrophils per sample) were incubated with 1×10^6 cfu/ml of the P. aeruginosa strain RP73 under suspension. These neutrophil/bacterial cultures were then incubated for 2 hours at 37° C. under 120 rpm of shaking. […] Post incubation, bacterial colonies were manually counted and the total cfu content quantified.

[2] = tested on: MRSA USA300; assay: Neutrophil bacterial co-culture (BKA) assay, MRSA USA300; format: cell-based, Staphylococcus aureus; settings: 2 hours
Procedure: The “MRSA assay” is carried out as follows: • a. admixing 100 μl of a 1×10^7 CFU/ml solution of MRSA strain USA300 in RPMI 1640 with 100 μl of a solution containing 1×10^7 granulocytes/ml; • b. incubating the admixture at 37° C. under shaking at 120 rpm; • c. taking a sample at 2 hours (diluting in sterile RPMI as needed) and plating on Tryptic Soy Agar; • d. incubating the plated sample at 37° C. for 24 hours; • e. counting the bacterial colonies; and • f. quantifying the total CFU content; and • g. calculating the % of MRSA cells killed based on the CFU content in steps a. and f using the formula ((CFU contentno effector−CFU contenteffector)/CFU contentno effector)×100.
as §1
Bacterial cultures were prepared as described above. […] Post incubation, bacterial colonies were manually counted and the total cfu content quantified.
as §2, with “suspension.” for “suspension. These neutrophil/bacterial cultures were then incubated for 2 hours at 37° C. under 120 rpm of shaking.”

NC[C@H]1O[C@H](O[C@H]2[C@H](O)[C@@H](O[C@H]3O[C@H](CO)[C@@H](O)[C@H](N)[C@H]3O)[C@H](N)C[C@@H]2N)[C@H](N)C[C@@H]1O [Tobramycin]
Bacterial Killing (%) ([1]; antibiotic 1 μg/ml): 6.60±2.22% and 6.60%
Bacterial Killing (%) ([1]; antibiotic 10 μg/ml): 77.78±13.40% and 77.78%
Bacterial Killing (%) ([1]; antibiotic 100 μg/ml): 95.37±2.87%
Bacterial Killing (%) ([2]; antibiotic 10 μg/ml): 25.05±6.13%

CN[C@H](CC(C)C)C(=O)N[C@H]1C(=O)N[C@@H](CC(N)=O)C(=O)N[C@H]2C(=O)N[C@H]3C(=O)N[C@H](C(=O)N[C@H](C(=O)O)c4cc(O)cc(O)c4-c4cc3ccc4O)[C@H](O)c3ccc(c(Cl)c3)Oc3cc2cc(c3O[C@@H]2O[C@H](CO)[C@@H](O)[C@H](O)[C@H]2O[C@H]2C[C@](C)(N)[C@H](O)[C@H](C)O2)Oc2ccc(cc2Cl)[C@H]1O [Vancomycin]
Bacterial Killing (%) ([2]; antibiotic 1 μg/ml): 5.73±3.70% and 5.73%
Bacterial Killing (%) ([2]; antibiotic 100 μg/ml): 92.58±2.01%
